From patent US20030166511A1, “Cardioprotective composition comprising ceruloplasmin and uses thereof” (GESTILAB INC., priority 1999, published 2003)
Read-outs that look alike come from different tables or passages of the source.

Columns and labels:
[1] = cited from earlier work; for concentrations ensuring good antioxidative activity in vitro: in vitro (Atanasiu et al., 1998)
isolated rat hearts = conditions: isolated rat heart, blood-free model (Chahine et al., 1991; Atanasiu et al, 1995), cited from earlier work
[2] = tested on: ischemic isolated rat heart; test: Reperfusion-induced irreversible ventricular fibrillation in isolated rat heart submitted to partial ischemia-reperfusion (Langendorff); conditions: TRIAD (S2) 0.16×, CP 0.5 μM
Experimental: All experiments were conformed to rules of the Guide for the care and use of laboratory animals published by the US National Institutes of Health (NIH publication No 85-23, revised 1985). Adult male Wistar rats (225-250 g) were anaesthetized with sodium pentobarbitone intra-peritoneally (0.1 ml/100 g body weight) and then heparinized (500 UI intra-peritoneally). […]
Hearts were perfused for a 10 min control period with KH buffer, and then […] with KH+TRIAD for stabilization. […] At the end of this 10 min arterial occlusion period, reperfusion was initiated by cutting the ligature with a scalpel bled and rhythm disturbances were monitored for 15 min more. Left ventricular pressure and epicardial ECG were continuously monitored before and during ischemia and reperfusion. […]
Rat hearts were first perfused for 10 min with KH buffer and then for another 10 min with the same buffer containing TRIAD (S2) prepared as described above (section 2.2), until equilibration of cardiodynamic variables was achieved. […] Left ventricular pressure and epicardial ECG were continuously monitored before and during ischemia and reperfusion. […]
Arrhythmia were defined according to the Lambeth convention (Walker et al., 1988). ECG recordings were analyzed for the incidence of irreversible ventricular fibrillation (IVF) and for the time of normal sinus. […]

[3] = conditions without oxidative stress (Atanasiu et al, 1996); cited from earlier work

Substance	concentrations ensuring good antioxidative activity in vitro [1]	scavenging capacity compared with other antioxidants ([1]; in vitro, β-phycocyanin indicator)	cardioprotective concentrations (isolated rat hearts)	cardiotoxic concentration (isolated rat hearts)	cardiotoxic concentration (isolated rat hearts; listed as Ceruloplasmin)	incidence of reperfusion-induced irreversible ventricular fibrillation (IVF) ([2]; isolated rat heart, 10 min regional ischemia then reperfusion, control 100%)	cardioprotection ([2]; reduction of IVF incidence versus control (100%))	electrophysiological effect [3]
Albumin [reference compound]	260 µM	–	–	–	–	–	–	–
Ceruloplasmin [CP]	2 to 15 µM	better scavenging capacity than SOD and than deferoxamine	up to 2 μM	≥ 4 µM	4 µM	75%	25%	prolongation of Effective Refractory Period (ERP) and of the action potential (AP)
